In this assay the test system is Rat Chronic Constriction Injury Model. As to conditions: 0.02 mg/kg/day subcutaneously; compared to unloaded polymer depots; FIG. 4.

The source of these data is patent publication US9351959B2, “Alpha adreneric receptor agonists for treatment of degenerative disc disease” (WARSAW ORTHOPEDIC INC., priority 2008, dated 2016).

Excerpt: The inventors evaluated the efficacy of a five Month Clonidine/Polymer Drug Depot in the Rat Chronic Constriction Injury Model. The animal model was the Bennett Model (Wistar rat). The purpose: To determine whether a five month polymer clonidine-eluting depot can improve pain associated behavioral responses in a rat model of neuropathic pain.
Experimental Design: Four loose chromic gut ligatures, 1 mm apart, were tied around the common sciatic nerve at mid-thigh. Each animal received treatment of test or control article—according to the dosing described in Table 5.
The inventors have conducted the present study for a period of 64 days and have employed the following two tests: (1) the Hargreaves test; and (2) the von Frey test. The Hargreaves Tests of Thermal Hyperalgesia were conducted on days 7, 14, 21, 28, 35, 42, 49, 56 and 63. The von Frey monofilament test of mechanical allodynia (performed the day following Thermal testing) were conducted on days-8, 15, 22, 29, 36, 43, 50, 57 and 64.

As for `Clc1cccc(Cl)c1N=C1NCCN1` [clonidine, 2,6-dichloro-N-2-imidazolidinyldenebenzenamine], the “pain behavioral response (measured as a percentage of baseline) for mechanical allodynia” value was “reduced the behavioral response”.
